{"source": "ChEMBL document CHEMBL5653631", "about": "“A Potent and Selective ULK1 Inhibitor Suppresses Autophagy and Sensitizes Cancer Cells to Nutrient Stress” (iScience, 2018)", "key": {"[1]": {"target": "TGF-beta receptor type-2 (Homo sapiens) (UniProt P37173)", "sequence (P37173 whole entry)": "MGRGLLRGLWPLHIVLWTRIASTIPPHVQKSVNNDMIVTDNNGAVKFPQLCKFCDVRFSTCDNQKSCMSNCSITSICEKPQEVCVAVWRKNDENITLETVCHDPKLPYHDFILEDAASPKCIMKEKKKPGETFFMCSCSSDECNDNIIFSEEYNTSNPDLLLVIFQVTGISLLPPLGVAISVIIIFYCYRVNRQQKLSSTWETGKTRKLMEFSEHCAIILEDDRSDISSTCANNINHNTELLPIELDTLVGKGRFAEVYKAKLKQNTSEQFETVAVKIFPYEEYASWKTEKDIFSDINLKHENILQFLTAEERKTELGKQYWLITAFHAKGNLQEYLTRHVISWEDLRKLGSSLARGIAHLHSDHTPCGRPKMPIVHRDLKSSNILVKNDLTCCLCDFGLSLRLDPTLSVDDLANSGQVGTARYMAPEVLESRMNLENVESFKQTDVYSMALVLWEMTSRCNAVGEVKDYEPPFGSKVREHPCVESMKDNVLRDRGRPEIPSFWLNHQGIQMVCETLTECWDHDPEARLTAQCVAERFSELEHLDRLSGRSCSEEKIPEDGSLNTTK", "experiment": "Inhibition of human recombinant TGFbR2 at 40 nM related to control ULK1"}, "[2]": {"target": "T1, Serine/threonine-protein kinase 3 (Homo sapiens) (UniProt Q13188)", "T1 sequence (whole entry)": "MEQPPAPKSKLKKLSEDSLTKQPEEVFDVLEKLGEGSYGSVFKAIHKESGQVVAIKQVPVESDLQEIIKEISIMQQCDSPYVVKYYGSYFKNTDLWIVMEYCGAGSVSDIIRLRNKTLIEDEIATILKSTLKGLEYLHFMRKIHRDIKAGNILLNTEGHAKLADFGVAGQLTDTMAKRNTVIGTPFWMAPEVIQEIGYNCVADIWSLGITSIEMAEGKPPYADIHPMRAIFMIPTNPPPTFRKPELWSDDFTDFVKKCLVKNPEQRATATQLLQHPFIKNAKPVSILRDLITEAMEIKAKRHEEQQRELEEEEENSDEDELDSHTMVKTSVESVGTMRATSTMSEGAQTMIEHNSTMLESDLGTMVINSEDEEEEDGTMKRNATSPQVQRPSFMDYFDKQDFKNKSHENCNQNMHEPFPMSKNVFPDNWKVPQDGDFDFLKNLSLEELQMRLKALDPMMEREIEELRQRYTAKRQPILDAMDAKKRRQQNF", "experiment": "Inhibition of human recombinant MST2 at 40 nM in presence of ATP by radiometric assay relative to control"}, "[3]": {"target": "T2, Ephrin type-B receptor 1 (Homo sapiens) (UniProt P54762)", "T2 sequence (whole entry)": "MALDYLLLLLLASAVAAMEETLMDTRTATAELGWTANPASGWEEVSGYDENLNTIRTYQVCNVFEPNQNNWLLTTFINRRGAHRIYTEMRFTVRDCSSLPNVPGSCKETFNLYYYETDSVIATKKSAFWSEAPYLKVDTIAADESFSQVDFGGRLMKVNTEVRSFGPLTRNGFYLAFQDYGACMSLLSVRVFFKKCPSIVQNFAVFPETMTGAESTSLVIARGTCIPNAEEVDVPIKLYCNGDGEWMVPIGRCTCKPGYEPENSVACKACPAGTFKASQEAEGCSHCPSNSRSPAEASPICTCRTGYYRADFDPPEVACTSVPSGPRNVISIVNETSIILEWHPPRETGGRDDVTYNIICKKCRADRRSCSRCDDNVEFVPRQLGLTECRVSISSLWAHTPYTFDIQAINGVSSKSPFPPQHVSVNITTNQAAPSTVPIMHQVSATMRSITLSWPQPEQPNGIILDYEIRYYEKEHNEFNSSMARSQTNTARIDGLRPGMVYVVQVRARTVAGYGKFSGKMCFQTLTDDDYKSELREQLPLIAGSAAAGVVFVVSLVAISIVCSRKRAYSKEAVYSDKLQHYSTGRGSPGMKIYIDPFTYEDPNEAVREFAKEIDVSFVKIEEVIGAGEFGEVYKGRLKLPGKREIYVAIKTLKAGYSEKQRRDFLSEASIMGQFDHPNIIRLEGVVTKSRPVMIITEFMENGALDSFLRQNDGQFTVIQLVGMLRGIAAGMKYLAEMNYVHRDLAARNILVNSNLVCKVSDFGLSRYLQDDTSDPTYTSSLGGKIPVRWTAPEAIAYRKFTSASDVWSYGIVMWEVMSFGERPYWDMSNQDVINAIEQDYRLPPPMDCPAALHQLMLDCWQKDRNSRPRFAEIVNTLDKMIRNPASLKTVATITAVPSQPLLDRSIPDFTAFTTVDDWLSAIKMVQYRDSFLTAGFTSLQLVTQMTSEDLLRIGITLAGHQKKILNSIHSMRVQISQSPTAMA", "experiment": "Inhibition of human recombinant EphB1 at 40 nM related to control ULK1"}, "[4]": {"target": "T3, Phosphorylase b kinase gamma catalytic chain, liver/testis isoform (Homo sapiens) (UniProt P15735)", "T3 sequence (whole entry)": "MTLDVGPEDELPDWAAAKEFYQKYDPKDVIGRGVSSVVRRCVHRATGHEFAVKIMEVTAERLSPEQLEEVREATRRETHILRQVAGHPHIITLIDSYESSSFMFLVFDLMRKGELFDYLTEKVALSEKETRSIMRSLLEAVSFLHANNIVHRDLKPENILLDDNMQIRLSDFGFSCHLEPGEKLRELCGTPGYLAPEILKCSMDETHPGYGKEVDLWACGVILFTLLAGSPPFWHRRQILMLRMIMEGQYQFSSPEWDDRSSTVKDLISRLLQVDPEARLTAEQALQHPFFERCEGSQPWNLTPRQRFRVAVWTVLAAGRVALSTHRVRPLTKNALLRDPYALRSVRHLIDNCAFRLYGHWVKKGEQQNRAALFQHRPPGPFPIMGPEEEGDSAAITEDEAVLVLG", "experiment": "Inhibition of human recombinant PHKg2 at 500 nM related to control ULK1"}, "[5]": {"target": "T4, NUAK family SNF1-like kinase 1 (Homo sapiens) (UniProt O60285)", "T4 sequence (whole entry)": "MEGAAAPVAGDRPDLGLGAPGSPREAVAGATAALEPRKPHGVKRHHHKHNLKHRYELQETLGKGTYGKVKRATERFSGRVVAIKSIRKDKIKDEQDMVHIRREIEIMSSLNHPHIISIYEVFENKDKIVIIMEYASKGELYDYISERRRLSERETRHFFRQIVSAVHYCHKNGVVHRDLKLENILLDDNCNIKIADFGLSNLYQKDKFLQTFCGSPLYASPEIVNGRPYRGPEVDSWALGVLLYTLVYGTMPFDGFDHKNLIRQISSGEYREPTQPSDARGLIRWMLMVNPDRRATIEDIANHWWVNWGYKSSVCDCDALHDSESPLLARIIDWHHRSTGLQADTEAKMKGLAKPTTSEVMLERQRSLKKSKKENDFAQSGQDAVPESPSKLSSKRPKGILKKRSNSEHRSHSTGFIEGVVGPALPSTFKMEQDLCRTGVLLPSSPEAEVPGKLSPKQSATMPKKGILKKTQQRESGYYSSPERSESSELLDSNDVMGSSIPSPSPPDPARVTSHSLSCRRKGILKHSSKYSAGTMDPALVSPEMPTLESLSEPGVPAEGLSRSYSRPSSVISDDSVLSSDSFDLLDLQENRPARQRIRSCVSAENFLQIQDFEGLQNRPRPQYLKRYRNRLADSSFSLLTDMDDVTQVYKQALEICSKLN", "experiment": "Inhibition of human recombinant NuaK1 at 500 nM in presence of ATP by radiometric assay relative to control"}, "[6]": {"target": "Macrophage colony-stimulating factor 1 receptor (Homo sapiens) (UniProt P07333)", "sequence (P07333 whole entry)": "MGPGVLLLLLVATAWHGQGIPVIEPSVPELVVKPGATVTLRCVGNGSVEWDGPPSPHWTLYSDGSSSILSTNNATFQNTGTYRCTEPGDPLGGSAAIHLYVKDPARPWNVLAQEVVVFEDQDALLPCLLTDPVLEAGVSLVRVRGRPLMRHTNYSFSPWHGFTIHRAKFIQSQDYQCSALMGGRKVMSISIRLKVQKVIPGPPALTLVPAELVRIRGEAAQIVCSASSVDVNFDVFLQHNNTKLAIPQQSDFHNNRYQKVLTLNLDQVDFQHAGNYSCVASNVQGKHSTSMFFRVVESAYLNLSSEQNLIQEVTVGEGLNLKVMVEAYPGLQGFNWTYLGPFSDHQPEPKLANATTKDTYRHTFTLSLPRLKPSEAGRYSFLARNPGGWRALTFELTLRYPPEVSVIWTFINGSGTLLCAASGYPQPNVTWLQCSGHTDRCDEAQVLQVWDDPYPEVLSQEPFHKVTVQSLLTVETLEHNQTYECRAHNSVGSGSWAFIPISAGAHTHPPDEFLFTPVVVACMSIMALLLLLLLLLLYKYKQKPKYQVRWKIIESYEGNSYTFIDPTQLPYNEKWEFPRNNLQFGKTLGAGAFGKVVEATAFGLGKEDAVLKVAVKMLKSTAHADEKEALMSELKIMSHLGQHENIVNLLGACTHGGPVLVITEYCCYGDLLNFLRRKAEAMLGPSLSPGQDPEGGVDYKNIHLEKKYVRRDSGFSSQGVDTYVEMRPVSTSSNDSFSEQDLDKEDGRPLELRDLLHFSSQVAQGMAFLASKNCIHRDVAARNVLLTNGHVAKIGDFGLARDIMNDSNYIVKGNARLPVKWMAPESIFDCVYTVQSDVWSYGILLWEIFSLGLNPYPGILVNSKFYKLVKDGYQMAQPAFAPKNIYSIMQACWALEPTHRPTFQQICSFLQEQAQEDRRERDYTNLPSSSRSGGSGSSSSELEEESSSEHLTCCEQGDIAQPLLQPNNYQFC", "experiment": "Inhibition of human recombinant FMS at 15 nM in presence of ATP by radiometric assay relative to control"}}, "data": [{"smiles": "O=C(N[C@@H](C1CC1)C(F)(F)F)c1cc(-c2cnn3cc(-c4ccc(F)cc4)cnc23)cs1", "values": [{"measurement": "fold change (FC)", "setting": "[1]", "result": 0.64}, {"measurement": "inhibition", "setting": "[2]", "result": 0, "unit": "%"}, {"measurement": "fold change (FC)", "setting": "[3]", "result": 0.01}]}, {"smiles": "CNC(=O)c1ccccc1Oc1nc(Nc2cc(OC)c(OC)c(OC)c2)ncc1Br", "values": [{"measurement": "fold change (FC)", "setting": "[4]", "result": 0}, {"measurement": "inhibition", "setting": "[5]", "result": 71, "unit": "%"}]}, {"smiles": "CC(C)[C@H](NC(=O)c1cc(-c2cnn3cc(-c4ccc(OCCN5CCCCC5)cc4)cnc23)cs1)C(F)(F)F", "values": [{"measurement": "inhibition", "setting": "[6]", "result": 17, "unit": "%"}]}]}
